{
  "source": "PubChem BioAssay AID2060336",
  "about": "(Molecular Pharmacology Branch, DTP, NCI, 2025)",
  "test_system": "958767-090-R-J1-PDC spheroid growth",
  "assay": "Anticancer human tumor 958767-090-R-J1-PDC patient-derived head and neck squamous carcinoma cell line growth inhibition [IpAb]",
  "conditions": "spheroids with HUVEC and MSC; for viability, T/C: stronger effect = lower value",
  "method_in_brief": "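Multi-cell spheroids of 60% tumour cells, 25% HUVEC and 15% MSC in ultra-low-attachment U-bottom wells, treated with agents combined with ipatasertib or abemaciclib. Half-log ranges top out near clinical Cmax, or 10 microM when Cmax is unknown.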",
  "note": "pIC50: −log10 of the molar value. Several values for one entry are separate records, joined by “and”; a condition that tells them apart may be missing. Equal entries are not always repeated.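 Also: spheroids exposed to agents for 7 days.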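 For viability, T/C in this document: 100% = DMSO vehicle control wells.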",
  "data": [
    {"smiles": "CCCS(=O)(=O)Nc1ccc(F)c(C(=O)c2c[nH]c3ncc(-c4ccc(Cl)cc4)cc23)c1F", "values": [
      {"measurement": "viability, T/C", "setting": "compound 0.0316 µM", "value": "86.3% and 103%"},
      {"measurement": "viability, T/C", "setting": "compound 0.1 µM", "value": "93.5% and 92.7%"},
      {"measurement": "viability, T/C", "setting": "compound 0.316 µM", "value": "92.7% and 98.5%"},
      {"measurement": "viability, T/C", "setting": "compound 1 µM", "value": "94.9% and 96%"},
      {"measurement": "viability, T/C", "setting": "compound 3.16 µM", "value": "98.5% and 96.4%"},
      {"measurement": "viability, T/C", "setting": "compound 10 µM", "value": "65.5% and 66.7%"},
      {"measurement": "pIC50", "setting": "curve of compound", "value": "< 5.00"}
    ]},
    {"smiles": "CC(C)n1nc(-c2ccc3oc(N)nc3c2)c2c(N)ncnc21", "note": "+ CCN1CCN(Cc2ccc(Nc3ncc(F)c(-c4cc(F)c5nc(C)n(C(C)C)c5c4)n3)nc2)CC1", "values": [
      {"measurement": "pIC50", "setting": "curve of first compound, second compound 0.01 µM", "value": 7.80},
      {"measurement": "pIC50", "setting": "curve of first compound, second compound 0.0316 µM", "value": 7.87},
      {"measurement": "pIC50", "setting": "curve of first compound, second compound 0.1 µM", "value": 7.64},
      {"measurement": "pIC50", "setting": "curve of first compound, second compound 0.316 µM", "value": 7.61},
      {"measurement": "pIC50", "setting": "curve of first compound, second compound 1 µM", "value": "< 7.00"},
      {"measurement": "viability, T/C", "setting": "second compound 0.01 µM, first compound 0.000316 µM", "value": 91.4, "unit": "%"},
      {"measurement": "viability, T/C", "setting": "second compound 0.01 µM, first compound 0.001 µM", "value": 92.4, "unit": "%"},
      {"measurement": "viability, T/C", "setting": "second compound 0.01 µM, first compound 0.00316 µM", "value": 84.2, "unit": "%"},
      {"measurement": "viability, T/C", "setting": "second compound 0.01 µM, first compound 0.01 µM", "value": 57.2, "unit": "%"},
      {"measurement": "viability, T/C", "setting": "second compound 0.01 µM, first compound 0.0316 µM", "value": 39.2, "unit": "%"},
      {"measurement": "viability, T/C", "setting": "second compound 0.01 µM, first compound 0.1 µM", "value": 33.8, "unit": "%"},
      {"measurement": "viability, T/C", "setting": "second compound 0.0316 µM, first compound 0.000316 µM", "value": 79.5, "unit": "%"},
      {"measurement": "viability, T/C", "setting": "second compound 0.0316 µM, first compound 0.001 µM", "value": 80.5, "unit": "%"},
      {"measurement": "viability, T/C", "setting": "second compound 0.0316 µM, first compound 0.00316 µM", "value": 82.6, "unit": "%"},
      {"measurement": "viability, T/C", "setting": "second compound 0.0316 µM, first compound 0.01 µM", "value": 54.1, "unit": "%"},
      {"measurement": "viability, T/C", "setting": "second compound 0.0316 µM, first compound 0.0316 µM", "value": 40.5, "unit": "%"},
      {"measurement": "viability, T/C", "setting": "second compound 0.0316 µM, first compound 0.1 µM", "value": 36.7, "unit": "%"},
      {"measurement": "viability, T/C", "setting": "second compound 0.1 µM, first compound 0.000316 µM", "value": 68.7, "unit": "%"},
      {"measurement": "viability, T/C", "setting": "second compound 0.1 µM, first compound 0.001 µM", "value": 73.1, "unit": "%"},
      {"measurement": "viability, T/C", "setting": "second compound 0.1 µM, first compound 0.00316 µM", "value": 70.3, "unit": "%"},
      {"measurement": "viability, T/C", "setting": "second compound 0.1 µM, first compound 0.01 µM", "value": 61.6, "unit": "%"},
      {"measurement": "viability, T/C", "setting": "second compound 0.1 µM, first compound 0.0316 µM", "value": 45.5, "unit": "%"},
      {"measurement": "viability, T/C", "setting": "second compound 0.1 µM, first compound 0.1 µM", "value": 35.4, "unit": "%"},
      {"measurement": "viability, T/C", "setting": "second compound 0.316 µM, first compound 0.000316 µM", "value": 70.6, "unit": "%"},
      {"measurement": "viability, T/C", "setting": "second compound 0.316 µM, first compound 0.001 µM", "value": 56.9, "unit": "%"},
      {"measurement": "viability, T/C", "setting": "second compound 0.316 µM, first compound 0.00316 µM", "value": 66.1, "unit": "%"},
      {"measurement": "viability, T/C", "setting": "second compound 0.316 µM, first compound 0.01 µM", "value": 54.1, "unit": "%"},
      {"measurement": "viability, T/C", "setting": "second compound 0.316 µM, first compound 0.0316 µM", "value": 48.8, "unit": "%"},
      {"measurement": "viability, T/C", "setting": "second compound 0.316 µM, first compound 0.1 µM", "value": 40, "unit": "%"},
      {"measurement": "viability, T/C", "setting": "second compound 1 µM, first compound 0.000316 µM", "value": 78.3, "unit": "%"},
      {"measurement": "viability, T/C", "setting": "second compound 1 µM, first compound 0.001 µM", "value": 75.9, "unit": "%"},
      {"measurement": "viability, T/C", "setting": "second compound 1 µM, first compound 0.00316 µM", "value": 64.8, "unit": "%"},
      {"measurement": "viability, T/C", "setting": "second compound 1 µM, first compound 0.01 µM", "value": 68.4, "unit": "%"},
      {"measurement": "viability, T/C", "setting": "second compound 1 µM, first compound 0.0316 µM", "value": 65.5, "unit": "%"},
      {"measurement": "viability, T/C", "setting": "second compound 1 µM, first compound 0.1 µM", "value": 50.7, "unit": "%"}
    ]},
    {"smiles": "Cn1cnc2c(F)c(Nc3ccc(Br)cc3Cl)c(C(=O)NOCCO)cc21", "values": [
      {"measurement": "viability, T/C", "setting": "compound 0.00949 µM", "value": "73% and 64.2%"},
      {"measurement": "viability, T/C", "setting": "compound 0.03 µM", "value": "48.8% and 52.3%"},
      {"measurement": "viability, T/C", "setting": "compound 0.0949 µM", "value": "32.5% and 42.5%"},
      {"measurement": "viability, T/C", "setting": "compound 0.3 µM", "value": "30.8% and 35.8%"},
      {"measurement": "viability, T/C", "setting": "compound 0.949 µM", "value": "31% and 28.7%"},
      {"measurement": "viability, T/C", "setting": "compound 3 µM", "value": "17.2% and 19.8%"},
      {"measurement": "pIC50", "setting": "curve of compound", "value": "7.55 and 7.36"}
    ]}
  ]
}
